Assay results: PubChem BioAssay AID2060610 (Molecular Pharmacology Branch, DTP, NCI, 2025)
Where “and” joins values, the source holds several entries; their conditions need not be identical. Equal entries are not always repeated. One block for each compound: values may come before it.

Tested on: 616215-338-R-J1-PDC complex spheroids, viability % test/control
Assay: Anticancer human tumor 616215-338-R-J1-PDC patient-derived colon adenocarcinoma cell line growth inhibition [CLK]
Conditions: for viability, T/C: stronger effect = lower value
Method in brief: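 Patient-derived tumor cells grown as complex spheroids with HUVEC endothelial cells and mesenchymal stem cells, treated with drug combinations. Concentrations descend in half-log steps from near clinical Cmax, or from 10 microM if Cmax unknown.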

[1] = curve of first compound, second compound 0.0316 µM
[2] = curve of first compound, second compound 0.1 µM
[3] = curve of first compound, second compound 0.316 µM
[4] = curve of first compound, second compound 1 µM
[5] = curve of first compound, second compound 3.16 µM
[6] = curve of first compound, second compound 10 µM
[7] = second compound 0.0316 µM, first compound 0.0316 µM
[8] = second compound 0.0316 µM, first compound 0.1 µM
[9] = second compound 0.0316 µM, first compound 0.316 µM
[10] = second compound 0.0316 µM, first compound 1 µM
[11] = second compound 0.0316 µM, first compound 3.16 µM
[12] = second compound 0.0316 µM, first compound 10 µM
[13] = second compound 0.1 µM, first compound 0.0316 µM
[14] = second compound 0.1 µM, first compound 0.1 µM
[15] = second compound 0.1 µM, first compound 0.316 µM
[16] = second compound 0.1 µM, first compound 1 µM
[17] = second compound 0.1 µM, first compound 3.16 µM
[18] = second compound 0.1 µM, first compound 10 µM
[19] = second compound 0.316 µM, first compound 0.0316 µM
[20] = second compound 0.316 µM, first compound 0.1 µM
[21] = second compound 0.316 µM, first compound 0.316 µM
[22] = second compound 0.316 µM, first compound 1 µM
[23] = second compound 0.316 µM, first compound 3.16 µM
[24] = second compound 0.316 µM, first compound 10 µM
[25] = second compound 1 µM, first compound 0.0316 µM
[26] = second compound 1 µM, first compound 0.1 µM
[27] = second compound 1 µM, first compound 0.316 µM
[28] = second compound 1 µM, first compound 1 µM
[29] = second compound 1 µM, first compound 3.16 µM
[30] = second compound 1 µM, first compound 10 µM
[31] = second compound 3.16 µM, first compound 0.0316 µM
[32] = second compound 3.16 µM, first compound 0.1 µM
[33] = second compound 3.16 µM, first compound 0.316 µM
[34] = second compound 3.16 µM, first compound 1 µM
[35] = second compound 3.16 µM, first compound 3.16 µM
[36] = second compound 3.16 µM, first compound 10 µM
[37] = second compound 10 µM, first compound 0.0316 µM
[38] = second compound 10 µM, first compound 0.1 µM
[39] = second compound 10 µM, first compound 0.316 µM
[40] = second compound 10 µM, first compound 1 µM
[41] = second compound 10 µM, first compound 3.16 µM
[42] = second compound 10 µM, first compound 10 µM
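Further: spheroids exposed to agents for 7 days.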
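Wherever viability, T/C is given: 100% = DMSO vehicle wells.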

IC50 [1]: > 10000 nM | IC50 [2]: 487 nM | IC50 [3]: < 31.6 nM | IC50 [4]: < 31.6 nM | IC50 [5]: < 31.6 nM | IC50 [6]: < 31.6 nM
Compound: CC(CO)NC(=O)c1cc(-c2ccc(Cl)cc2)nn(-c2cnn(C)c2)c1=O (configuration not stated) + CNC(=O)c1ccc(Nc2nc(OC3CCCC3)c3c(-c4ccc5nc(C)oc5c4)c[nH]c3n2)c(OC)c1
viability, T/C [7]: 85.1% | viability, T/C [8]: 89% | viability, T/C [9]: 89.2% | viability, T/C [10]: 92.8% | viability, T/C [11]: 91.1% | viability, T/C [12]: 97.5% | viability, T/C [13]: 58.9% | viability, T/C [14]: 57.9% | viability, T/C [15]: 48.7% | viability, T/C [16]: 45.9% | viability, T/C [17]: 50.6% | viability, T/C [18]: 43.4% | viability, T/C [19]: 36.4% | viability, T/C [20]: 45.8% | viability, T/C [21]: 40.2% | viability, T/C [22]: 38.6% | viability, T/C [23]: 48% | viability, T/C [24]: 40.2% | viability, T/C [25]: 43.5% | viability, T/C [26]: 46% | viability, T/C [27]: 46.3% | viability, T/C [28]: 41.8% | viability, T/C [29]: 44.2% | viability, T/C [30]: 35.3% | viability, T/C [31]: 45% | viability, T/C [32]: 45.4% | viability, T/C [33]: 36.2% | viability, T/C [34]: 38.4% | viability, T/C [35]: 31.7% | viability, T/C [36]: 30.3% | viability, T/C [37]: 43.4% | viability, T/C [38]: 43.4% | viability, T/C [39]: 34.3% | viability, T/C [40]: 30.3% | viability, T/C [41]: 34.3% | viability, T/C [42]: 39.5%

IC50 [1]: 707 nM | IC50 [2]: < 31.6 nM | IC50 [3]: < 31.6 nM | IC50 [4]: < 31.6 nM | IC50 [5]: < 31.6 nM | IC50 [6]: < 31.6 nM
Compound: O=c1[nH]cc(F)c(=O)[nH]1 + CNC(=O)c1ccc(Nc2nc(OC3CCCC3)c3c(-c4ccc5nc(C)oc5c4)c[nH]c3n2)c(OC)c1
viability, T/C [7]: 96.7% | viability, T/C [8]: 110% | viability, T/C [9]: 60.2% | viability, T/C [10]: 52.3% | viability, T/C [11]: 43.1% | viability, T/C [12]: 41.4% | viability, T/C [13]: 47% | viability, T/C [14]: 45.9% | viability, T/C [15]: 35% | viability, T/C [16]: 34.1% | viability, T/C [17]: 40.9% | viability, T/C [18]: 36.5% | viability, T/C [19]: 41.6% | viability, T/C [20]: 41.7% | viability, T/C [21]: 33.6% | viability, T/C [22]: 37.3% | viability, T/C [23]: 36.6% | viability, T/C [24]: 39.3% | viability, T/C [25]: 43.4% | viability, T/C [26]: 38% | viability, T/C [27]: 36.3% | viability, T/C [28]: 37.8% | viability, T/C [29]: 38.2% | viability, T/C [30]: 33.3% | viability, T/C [31]: 42.3% | viability, T/C [32]: 42.2% | viability, T/C [33]: 38% | viability, T/C [34]: 32.6% | viability, T/C [35]: 36% | viability, T/C [36]: 36.4% | viability, T/C [37]: 51.1% | viability, T/C [38]: 41.3% | viability, T/C [39]: 41.8% | viability, T/C [40]: 38.5% | viability, T/C [41]: 37.1% | viability, T/C [42]: 39.2%

IC50 (curve of compound): 5250 nM and > 10000 nM
Compound: CC1(C)CCC(CN2CCN(c3ccc(C(=O)NS(=O)(=O)c4ccc(NCC5CCOCC5)c([N+](=O)[O-])c4)c(Oc4cnc5[nH]ccc5c4)c3)CC2)=C(c2ccc(Cl)cc2)C1
viability, T/C (compound 0.0316 µM): 88.4% and 102% | viability, T/C (compound 0.1 µM): 95.6% and 102% | viability, T/C (compound 0.316 µM): 97.5% and 98.5% | viability, T/C (compound 1 µM): 90.2% and 96.7% | viability, T/C (compound 3.16 µM): 86.7% and 87.4%

IC50 (curve of compound): 143 nM and 245 nM
Compound: COc1c(OCCCN2CCOCC2)ccc2c3n(c(=NC(=O)c4cnc(N)nc4)nc12)CCN3
viability, T/C (compound 0.00316 µM): 101% and 89.7% | viability, T/C (compound 0.01 µM): 111% and 96.4% | viability, T/C (compound 0.0316 µM): 106% and 114% | viability, T/C (compound 0.1 µM): 57.7% and 74.8% | viability, T/C (compound 0.316 µM): 36.1% and 46% | viability, T/C (compound 1 µM): 29% and 39.8%
